Reference: patent US20100075334A1, “METHYLATION BIOMARKER FOR EARLY DETECTION OF GASTRIC CANCER” (priority 2007, published 2010)

System: gastric cancer cell lines, SNU001, SNU601, and SNU668
Assay: Reactivation analysis of silenced genes by drug treatment (RT-PCR)
Type: cell-based, human
Settings: for number of selected genes restored (summary): 5-aza and/or TSA treatment, of 26 epigenetic targets; for number of selected genes restored in the corresponding inactivated cells: after 5-Aza-dC and/or TSA treatment, gene-specific or cell-specific mode
Description: To examine the correspondence between NotI-methylation and gene silencing at the neighboring region of the NotI site, RT-PCR analysis was performed for each selected gene with RNA of gastric cancer cell line. Reverse transcription using 5 μg of DNase-treated RNA was done using Superscript II reverse transcriptase (Invitrogen) in a reaction volume of 20 μL. One μL of the reverse transcription reaction was used for amplification using Platinum Taq DNA polymerase (Invitrogen). Amplification was done as follows: denaturation at 94° C. for 30 s, annealing at a primer specific annealing temperature for 30 s and extension at 72° C. for 45 s. All reactions were performed on a GeneAmp PCR System 9700 (Perkin-Elmer Corp.). Five μL of the PCR product were run on a 0.8% agarose gel and visualized by EtBr staining. GAPDH gene was used as a control for comparison of the amount of reverse transcribed template in each sample.
Three gastric cancer cell lines, SNU001, SNU601, and SNU668, were treated with 5-aza-2′-deoxycytidine (5-Aza-dC; Sigma) as a demethylating agent and 5-Aza-dC and trichostatin A (TSA; Sigma) as a HDAC inhibitor to examine the restoring of selected genes in those cells. Each cell was plated at a density of 1×10^5 cells/100-mm dish and cultures for 24 h, followed by 72 h culture with 1 μM 5-Aza-dC. Other cells were also followed by 24 h culture with 250 nM TSA or 72 h 5-Aza-dC-treated cells for another 24 h. RNA was prepared and RT-PCR analysis was then performed using gene-specific primer set as described above. GAPDH gene was also used as a control.
For the selected 22 genes, reactivation analysis was examined in three gastric cancer cell lines by 5-Aza-dC and/or TSA treatment.

Structure (SMILES) | number of selected genes restored (summary) | number of selected genes restored in the corresponding inactivated cells | restoration of expression of POPDC3, NACM2, PRKD1 and AMPD3 (three gastric cancer cell lines, 1 μM 5-Aza-dC 72 h, RT-PCR, restored only by 5-Aza-dC)
CC(/C=C/C(=O)NO)=C\[C@@H](C)C(=O)c1ccc(N(C)C)cc1 [TSA, trichostatin A] | 23 of 26 | 22 genes | –
Nc1ncn([C@H]2C[C@H](O)[C@@H](CO)O2)c(=O)n1 [5-Aza-dC, 5-aza-2′-deoxycytidine] | 23 of 26 | 22 genes | restored in two or three corresponding inactivated cells
